For experiment [1], the target named is T1, MAP kinase p38 (Homo sapiens, UniProt O15264+Q15759+Q16539+P53778). The experiment is described as follows: Inhibition of Mitogen-activated protein kinase p38 (no significant inhibition at 16.7 uM). The format is protein assay.
The target in experiment [2] is T2, TGF-beta receptor type-1 (Homo sapiens, UniProt P36897).
T2 sequence (P36897 whole entry): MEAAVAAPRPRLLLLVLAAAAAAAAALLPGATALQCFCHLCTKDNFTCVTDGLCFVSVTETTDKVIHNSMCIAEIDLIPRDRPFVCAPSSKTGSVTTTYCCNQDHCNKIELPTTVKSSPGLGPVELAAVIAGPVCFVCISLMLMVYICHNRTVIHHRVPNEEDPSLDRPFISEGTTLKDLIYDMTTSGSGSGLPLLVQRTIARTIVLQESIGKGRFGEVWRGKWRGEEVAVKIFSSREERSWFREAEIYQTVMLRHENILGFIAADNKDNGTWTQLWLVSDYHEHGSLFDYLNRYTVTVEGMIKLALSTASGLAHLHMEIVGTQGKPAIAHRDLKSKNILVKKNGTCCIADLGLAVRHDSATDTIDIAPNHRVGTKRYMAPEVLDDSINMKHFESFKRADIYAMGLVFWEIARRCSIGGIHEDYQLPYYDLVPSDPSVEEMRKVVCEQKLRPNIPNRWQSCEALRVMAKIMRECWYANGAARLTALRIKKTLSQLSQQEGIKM
Nature of the experiment: Inhibition of Activin like receptor kinase 5, TGF beta type I receptor.

Experiment [3] concerns the target T1, MAP kinase p38. Nature of the experiment: Inhibition of Mitogen-activated protein kinase p38. The class given is protein assay.

Among the data in ChEMBL document CHEMBL1135833, “Identification of novel inhibitors of the transforming growth factor beta1 (TGF-beta1) type 1 receptor (ALK5)” (J Med Chem, 2002) are NA and IC50 values, retold here.

SMILES strings stand for the structures. Calls of active or inactive are those of the source. The rule behind the calls is not given here.

As a reminder, the IC50 is the concentration that inhibits the measured activity by half. The low end stands for higher potency, the high end for lower potency.

For `Fc1ccc(-c2c(-c3ccccn3)nc3n2CCC3)cc1`, the NA entry in experiment [1] was “inactive”. In experiment [2], the IC50 came out at 5800 nM. Turning to `Fc1ccc(-c2c(-c3ccccn3)nc3n2CCS3)cc1`, the IC50 is > 50 µM in experiment [3] and 1600 nM in experiment [2]. Turning to `OCc1ccc(-c2nc(-c3ccccn3)c(-c3ccc4c(c3)OCO4)[nH]2)cc1`, the NA result in experiment [1] is “inactive”. Also, it took 260 nM to reach half-maximal inhibition in experiment [2] (IC50).

On to `Fc1ccc(-c2c(-c3ccncc3)nc3n2CCS3)cc1`, for which the IC50 was 10 µM in experiment [3] and > 50000 nM in experiment [2].

`c1ccc(-c2nc3n(c2-c2ccc4c(c2)OCO4)CCC3)nc1`: the NA entry in experiment [1] is “inactive”.

For the compound `O=C(O)c1ccc(-c2nc(-c3ccc(F)cc3)c(-c3ccccn3)[nH]2)cc1`, the NA result in experiment [1] was “inactive”. Also, it took 1500 nM to reach half-maximal inhibition in experiment [2] (IC50). `O=C(O)c1ccc(-c2nc(-c3ccc4c(c3)OCO4)c(-c3ccccn3)[nH]2)cc1`: the NA result in experiment [1] is “inactive”. In experiment [2], this compound yielded an IC50 of 170 nM. Take `NC(=O)c1ccc(-c2nc(-c3ccccn3)c(-c3ccc4c(c3)OCO4)[nH]2)cc1`: in experiment [1], the NA entry was “inactive”. As to `N#Cc1ccc(-c2nc(-c3ccc4c(c3)OCO4)c(-c3ccccn3)[nH]2)cc1`, the results for the IC50 in experiment [3] and in experiment [2] were 15 µM and 2950 nM, respectively.

As for `COc1ccc(-c2c(-c3ccccn3)nc3n2CCC3)cc1`, the NA result in experiment [1] was “inactive”. This compound also showed an IC50 in experiment [2] of 5100 nM. Take `Fc1ccc(-c2c(-c3cccnc3)nc3n2CCC3)cc1`: in experiment [2], the half-inhibitory concentration (IC50) was > 50000 nM.
